Measurements published in patent US20040147478A1, “Combination chemotherapy” (priority 2002, published 2004).
Read-outs that look alike come from different tables or passages of the source.

How the values were obtained:
[1] = system: C26/clone 10 mouse colon carcinoma
[2] = system: C26/clone 10 mouse colon carcinoma; remark: listed apart in the source
[3] = system: COLO-205 human colon carcinoma xenografts
[4] = in vivo; settings: female, Balb/C, mouse, po
[5] = in vivo; settings: female, NCr-nu athymic
[6] = in vivo; settings: female, NCr-nu athymic; remark: listed apart in the source
[7] = system: COLO-205 human colon carcinoma xenografts; remark: listed apart in the source
[8] = in vivo; settings: female, NCr-nu athymic; remark: listed apart in the source
[9] = system: COLO-205 human colon carcinoma xenografts; remark: listed apart in the source
[10] = Capecitabine 500 mg/kg QD alone
[11] = Capecitabine 650 mg/kg QD alone
[12] = Capecitabine 500 mg/kg qd alone
[13] = highest dose of capecitabine alone
[14] = Capecitabine 650 mg/kg qd alone
[15] = Compound A single agent at the MTD

SMILES: O=C(NOCC1CC1)c1ccc(F)c(F)c1Nc1ccc(I)cc1Cl [CI-1040, 2-(2-Chloro-4-iodo-phenylamino)-N-cyclopropylmethoxy-3,4-difluorobenzamide]
- % Weight Change ([1]; CI-1040 37.5 mg/kg tid alone): −5.1%
- CR (complete response) ([1]; CI-1040 37.5 mg/kg tid alone): 0/10
- Net Log10 Kill ([1]; CI-1040 37.5 mg/kg tid alone): −0.62
- Non-specific Deaths ([1]; CI-1040 37.5 mg/kg tid alone): 0/10
- PR (partial response) ([1]; CI-1040 37.5 mg/kg tid alone): 0/10
- T-C (tumor growth delay) ([1]; CI-1040 37.5 mg/kg tid alone): 3.8 days
- Tumor Free (day 93) ([1]; CI-1040 37.5 mg/kg tid alone): 0/10
- % Weight Change ([1]; CI-1040 75.0 mg/kg tid alone): −5.1%
- CR (complete response) ([1]; CI-1040 75.0 mg/kg tid alone): 0/10
- Net Log10 Kill ([1]; CI-1040 75.0 mg/kg tid alone): −0.21
- Non-specific Deaths ([1]; CI-1040 75.0 mg/kg tid alone): 0/10
- PR (partial response) ([1]; CI-1040 75.0 mg/kg tid alone): 0/10
- T-C (tumor growth delay) ([1]; CI-1040 75.0 mg/kg tid alone): 9.8 days
- Tumor Free (day 93) ([1]; CI-1040 75.0 mg/kg tid alone): 0/10
- % Weight Change ([1]; CI-1040 300.0 mg/kg tid alone): −5.1%
- CR (complete response) ([1]; CI-1040 300.0 mg/kg tid alone): 0/10
- Net Log10 Kill ([1]; CI-1040 300.0 mg/kg tid alone): 0.25
- Non-specific Deaths ([1]; CI-1040 300.0 mg/kg tid alone): 0/10
- PR (partial response) ([1]; CI-1040 300.0 mg/kg tid alone): 2/10
- T-C (tumor growth delay) ([1]; CI-1040 300.0 mg/kg tid alone): 16.7 days
- Tumor Free (day 93) ([1]; CI-1040 300.0 mg/kg tid alone): 0/10
- partial tumor responses ([1]; CI-1040 300 mg/kg/treatment alone): 20%
- loss of initial body weight ([1]; CI-1040 alone, over the dosage range administered): approximately 5%
- % Weight Change ([2]; CI-1040 37.5 mg/kg tid alone): −5.6%
- CR (complete response) ([2]; CI-1040 37.5 mg/kg tid alone): 0/10
- Net Log10 Kill ([2]; CI-1040 37.5 mg/kg tid alone): −0.93
- Non-specific Deaths ([2]; CI-1040 37.5 mg/kg tid alone): 0/10
- PR (partial response) ([2]; CI-1040 37.5 mg/kg tid alone): 0/10
- T-C (tumor growth delay) ([2]; CI-1040 37.5 mg/kg tid alone): 1.9 days
- Tumor Free (day 56) ([2]; CI-1040 37.5 mg/kg tid alone): 0/10
- % Weight Change ([2]; CI-1040 75.0 mg/kg tid alone): −10.5%
- CR (complete response) ([2]; CI-1040 75.0 mg/kg tid alone): 0/10
- Net Log10 Kill ([2]; CI-1040 75.0 mg/kg tid alone): −0.33
- Non-specific Deaths ([2]; CI-1040 75.0 mg/kg tid alone): 0/10
- PR (partial response) ([2]; CI-1040 75.0 mg/kg tid alone): 1/10
- T-C (tumor growth delay) ([2]; CI-1040 75.0 mg/kg tid alone): 9.0 days
- Tumor Free (day 56) ([2]; CI-1040 75.0 mg/kg tid alone): 0/10
- % Weight Change ([2]; CI-1040 300.0 mg/kg tid alone): −5.3%
- CR (complete response) ([2]; CI-1040 300.0 mg/kg tid alone): 0/10
- Net Log10 Kill ([2]; CI-1040 300.0 mg/kg tid alone): −0.04
- Non-specific Deaths ([2]; CI-1040 300.0 mg/kg tid alone): 0/10
- PR (partial response) ([2]; CI-1040 300.0 mg/kg tid alone): 4/10
- T-C (tumor growth delay) ([2]; CI-1040 300.0 mg/kg tid alone): 12.5 days
- Tumor Free (day 56) ([2]; CI-1040 300.0 mg/kg tid alone): 0/10
- partial tumor rate ([2]; highest dose of CI-1040 alone): 40%

SMILES: CCCCCOC(=O)Nc1nc(=O)n([C@@H]2O[C@H](C)[C@@H](O)[C@H]2O)cc1F [Capecitabine, 5′-deoxy-5-fluoro-N-[(pentyloxy)carbonyl]-cytidine]
- CR (complete response) [3, 10]: 0/10
- Net Log10 Kill [3, 10]: 0.7
- Non-specific Deaths [3, 10]: 0/10
- PR (partial response) [3, 10]: 1/10
- T-C (tumor growth delay) [3, 10]: 33.4 days
- Tumor Free (day 118) [3, 10]: 0/10
- CR (complete response) [3, 11]: 3/10
- Net Log10 Kill [3, 11]: 1.5
- Non-specific Deaths [3, 11]: 0/10
- PR (partial response) [3, 11]: 4/10
- T-C (tumor growth delay) [3, 11]: 56.0 days
- Tumor Free (day 118) [3, 11]: 2/10
- MTD [4]: 750 mg/kg/day
- MTD [5]: 650 mg/kg
- CR (complete response) [1, 12]: 4/10
- Net Log10 Kill [1, 12]: 0.50
- Non-specific Deaths [1, 12]: 0/10
- PR (partial response) [1, 12]: 1/10
- T-C (tumor growth delay) [1, 12]: 18.4 days
- Tumor Free (day 93) [1, 12]: 3/10
- tumor growth delay ([1]; both dosages of capecitabine alone): approximately 18 days
- complete tumor responses ([1]; capecitabine 500 mg/kg alone): 40%
- partial tumor responses ([1]; capecitabine 500 mg/kg alone): 10%
- tumor-free when the study ended on day 93 ([1]; capecitabine 500 mg/kg alone): 30%
- complete tumor responses [1, 13]: 70%
- partial tumor responses [1, 13]: 10%
- loss of initial body weight ([1]; mouse, in vivo): approximately 5%
- CR (complete response) [2, 12]: 0/10
- Net Log10 Kill [2, 12]: 0.20
- Non-specific Deaths [2, 12]: 0/10
- PR (partial response) [2, 12]: 0/10
- T-C (tumor growth delay) [2, 12]: 13.4 days
- Tumor Free (day 56) [2, 12]: 0/10
- partial tumor responses ([2]; capecitabine 750 mg/kg alone): 40%
- MTD [6]: 650 mg/kg
- Tumor Free (day 112) [7, 12]: 1/9
- Non-specific Deaths [7, 14]: 0/10
- Tumor Free (day 112) [7, 14]: 2/10
- MTD [8]: 650 mg/kg
- Tumor Free (day 129) [9, 12]: 0/10
- Non-specific Deaths [9, 14]: 0/10
- Tumor Free (day 129) [9, 14]: 0/10

SMILES: O=C(NOC[C@H](O)CO)c1ccc(F)c(F)c1Nc1ccc(I)cc1F [Compound A, N-[(R)-2,3-Dihydroxy-propoxy]-3,4-difluoro-2-(2-fluoro-4-iodo-phenylamino)-benzamide]
- Net Log10 Kill ([3]; Compound A 3.13 mg/kg QD alone): 0.9
- T-C (tumor growth delay) ([3]; Compound A 3.13 mg/kg QD alone): 40.6 days
- Net Log10 Kill ([3]; Compound A 6.25 mg/kg QD alone): 0.6
- T-C (tumor growth delay) ([3]; Compound A 6.25 mg/kg QD alone): 30.1 days
- growth delays [3, 15]: up to 42 days
- tumor cells survived treatment (net kill calculations) ([3]; Compound A single agent, all tolerated dose levels): > 10%
- complete regressions ([3]; Compound A single agent, all tolerated doses): > 50%
- MTD [5]: 12.5 mg/kg
- MTD [6]: 12.5 mg/kg
- tumor cells survived treatment (net kill calculations) ([7]; Compound A single agent, most tolerated dose levels): > 10%
- MTD [8]: 12.5 mg/kg
- tumor cells survived treatment (net kill calculations) [9, 15]: < 10%
